Assay results taken from patent publication US20260234115A1, “LIPID COMPOUNDS, COMPOSITIONS, AND USES THEREOF” (Liberate Bio, Inc., priority 2023, published 2026).
Marks after values point to notes of the source that are not given here.

Columns and labels:
[1] = Dynamic light scattering: LNP particle size and PDI; format: physicochemical; settings: for PDI N/P:6 / Size (nm) N/P:6: LNP
Procedure: (§1) Lipids and active ingredients (e.g., RNA, DNA, etc.) were assembled into LNPs using microfluidic mixing. An ethanol phase was prepared by solubilizing ionizable lipids (i.e., lipid compounds), phospholipids (e.g., DSPC), cholesterol, and PEG lipids in ethanol, at predetermined mol % ratios given in Table 2. An aqueous phase was prepared by diluting a nucleic acid cargo (e.g., firefly luciferase mRNA) in an acidified buffer (pH 4.0 citrate buffer, 50 mM). A chip with microfluidic mixing architecture (e.g., toroidal mixer) was used to mix the two phases at predetermined flow rate ratios (e.g., 9 ml/min for the aqueous phase and 3 ml/min for the ethanol phase). Resulting LNPs comprising the lipids and encapsulating the nucleic acid cargo were dialyzed against PBS pH 7.4 for 2 hours at room temperature in a 20 kDa MWCO dialysis membrane. Then, PBS was refreshed to continue dialysis overnight at 2-8 TC. Upon completion of the buffer exchange, LNPs were optionally concentrated using a ultracentrifugal unit with a 10-100 kDa MWCO membrane.
d. Dynamic Light Scattering
LNPs were diluted with PBS pH 7.4 to predetermined dilution ranges based on the process step and LNP concentration. Following mixing, the particle size and PDI were measured by a dynamic light scattering instrument.

[2] = Plate-based fluorescence (RiboGreen) assay: nucleic acid cargo content and encapsulation efficiency of LNPs; format: physicochemical; settings: for EE (%) N/P:6: LNP
Procedure: as §1
c. Plate-Based Fluorescence (RiboGreen) Assay
Nucleic acid cargos in the LNPs were quantified by RiboGreen assay, against a nucleic acid standard curve. LNPs encapsulating nucleic acid cargo were mixed with 1× Tris-EDTA (TE) and 2% triton in TE, separately, to achieve dilutions required by the assay. Then, the samples were heated at 30° C. and vortexed at 300 rpm. Samples were plated into 96-well plates and RiboGreen reagent was added into each well. Following incubation in the dark, fluorescence was measured from the wells, and plotted against the standard curve. Nucleic acid concentration obtained from the Triton-treated samples were used for total cargo concentration quantification. Only TE diluted sample fluorescence values were used to determine the non-encapsulated (free) cargo, and their ratio was used to determine the encapsulation efficiency (EE %).

mouse organs = assay: In vivo activity screening in mice: organ mean total flux (p/s) of luciferase activity after injection of F2 LNP pools (Table 6, FIG. 7A-7C); settings: luciferase mRNA
Method in brief: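 C57BL/6J mice given one tail-vein injection of pooled Formulation F2 LNPs carrying firefly luciferase mRNA (0.25-3 mg/kg) in PBS. At 4-6 h, s.c. D-luciferin given; organs imaged ex vivo by IVIS within 10-15 min, after saline cardiac perfusion. Mean total flux (p/s) per organ ROI.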

[3] = LNP compositions for Formulation F2 Study
[4] = LNP compositions for in vivo mouse study, four formulations (F1-F4) of the lipid compound pooled, or pools of four compounds (sixteen compositions)
[5] = LNP compositions for in vivo mouse study, four formulations (F1-F4) pooled, or pools of four compounds

Structure (SMILES)	Particle Size (nm) [1, 4] [nm]	PDI [1, 5]	PDI N/P:6 ([1]; Formulation F1, N/P 6)	Size (nm) N/P:6 ([1]; Formulation F1, N/P 6) [nm]	PDI N/P:6 ([1]; Formulation F2, N/P 6)	Size (nm) N/P:6 ([1]; Formulation F2, N/P 6) [nm]	PDI N/P:6 ([1]; Formulation F3, N/P 6)	Size (nm) N/P:6 ([1]; Formulation F3, N/P 6) [nm]	PDI N/P:6 ([1]; Formulation F4, N/P 6)	Size (nm) N/P:6 ([1]; Formulation F4, N/P 6) [nm]	EE % [2, 5] [%]	mRNA Content [2, 5] [µg/mL]	EE (%) N/P:6 ([2]; Formulation F1, N/P 6) [%]	EE (%) N/P:6 ([2]; Formulation F2, N/P 6) [%]	EE (%) N/P:6 ([2]; Formulation F3, N/P 6) [%]	EE (%) N/P:6 ([2]; Formulation F4, N/P 6) [%]	Organ Mean Total Flux Femur (mouse organs; Mouse 1, dose 0.3 mg/kg)	Organ Mean Total Flux Heart (mouse organs; Mouse 1, dose 0.3 mg/kg)	Organ Mean Total Flux Kidney (mouse organs; Mouse 1, dose 0.3 mg/kg)	Organ Mean Total Flux Liver (mouse organs; Mouse 1, dose 0.3 mg/kg)	further results
CCCCC/C=C\CCOC(=O)CCCCCC(=O)OCC(COC(=O)CCCCCC(=O)OCC/C=C\CCCCC)(COC(=O)CCC(CCCCCC)OC(=O)NCCN1CCCC1)COC(=O)CC12CC3CC(CC(C3)C1)C2 (centres unmarked) [Compound 8, O7-[2-[[2-(1-adamantyl)acetyl]oxymethyl]-2-[[7-[(Z)-non-3-enoxy]-7-oxo-heptanoyl]oxymethyl]-3-[4-(2-pyrrolidin-1-ylethylcarbamoyloxy)decanoyloxy]propyl]O1-[(Z)-non-3-enyl]heptanedioate]	101	0.07	0.08	87 ± 6	0.06	117 ± 4	0.12	100 ± 2	0.19	79 ± 1	97	108	100	99	95	99	11.1 p/s (×10^6)	2.8 p/s (×10^6)	0.8 p/s (×10^6)	72.4 p/s (×10^6)	PDI [1, 3]: 0.071; Particle Size (nm) [1, 3]: 119 nm; EE % [2, 3]: 98%; Organ Mean Total Flux Lung (mouse organs; Mouse 1, dose 0.3 mg/kg): 20.1 p/s (×10^6); Organ Mean Total Flux Muscle (mouse organs; Mouse 1, dose 0.3 mg/kg): 22.7 p/s (×10^6); Organ Mean Total Flux Pancreas (mouse organs; Mouse 1, dose 0.3 mg/kg): 4.4 p/s (×10^6); Organ Mean Total Flux Spleen (mouse organs; Mouse 1, dose 0.3 mg/kg): 10.7 p/s (×10^6); Organ Mean Total Flux Femur (mouse organs; Mouse 14, dose 0.5 mg/kg): 9.8 p/s (×10^6); Organ Mean Total Flux Heart (mouse organs; Mouse 14, dose 0.5 mg/kg): 2.2 p/s (×10^6); Organ Mean Total Flux Kidney (mouse organs; Mouse 14, dose 0.5 mg/kg): 3.6 p/s (×10^6); Organ Mean Total Flux Liver (mouse organs; Mouse 14, dose 0.5 mg/kg): 257.0 p/s (×10^6); Organ Mean Total Flux Lung (mouse organs; Mouse 14, dose 0.5 mg/kg): 6.4 p/s (×10^6); Organ Mean Total Flux Muscle (mouse organs; Mouse 14, dose 0.5 mg/kg): 46.9 p/s (×10^6); Organ Mean Total Flux Pancreas (mouse organs; Mouse 14, dose 0.5 mg/kg): 4.0 p/s (×10^6); Organ Mean Total Flux Spleen (mouse organs; Mouse 14, dose 0.5 mg/kg): 10.4 p/s (×10^6)
CCCCC/C=C\CCOC(=O)CCCCCC(=O)OCC(COC(=O)CCCCCC(=O)OCC/C=C\CCCCC)(COC(=O)CCC(CCCCCC)OC(=O)NCCN1CCCC1)COC(=O)CCC(OCCCCCCCC)OCCCCCCCC (centres unmarked) [Compound 9, O7-[2-(4,4-dioctoxybutanoyloxymethyl)-2-[[7-[(Z)-non-3-enoxy]-7-oxo-heptanoyl]oxymethyl]-3-[4-(2-pyrrolidin-1ylethylcarbamoyloxy)decanoyloxy]propyl]O1-[(Z)-non-3-enyl]heptanedioate]	79	0.07	0.07	68 ± 2	0.03	76 ± 1	0.03	92 ± 2	0.13	63 ± 1	97	102	100	100	99	99	7.6 p/s (×10^6)	1.4 p/s (×10^6)	3.4 p/s (×10^6)	3583 p/s (×10^6)	Organ Mean Total Flux Lung (mouse organs; Mouse 1, dose 0.3 mg/kg): 29.8 p/s (×10^6); Organ Mean Total Flux Muscle (mouse organs; Mouse 1, dose 0.3 mg/kg): 8.3 p/s (×10^6); Organ Mean Total Flux Pancreas (mouse organs; Mouse 1, dose 0.3 mg/kg): 6.7 p/s (×10^6); Organ Mean Total Flux Spleen (mouse organs; Mouse 1, dose 0.3 mg/kg): 32.5 p/s (×10^6)
